Several values for one entry are separate records, joined by “and”; a condition that tells them apart may be missing. Identical values can stand only once. Toxic doses and inconclusive results are not listed. Rule for the calls: active = survival T/C of 150% or more; inactive = T/C below 125% in these data.
System: CD2F1 mice, L1210 leukemia ip, survival T/C
Assay: NCI In Vivo Anticancer Drug Screen. Data for tumor model L1210 Leukemia (intraperitoneal) in CD2F1 (CDF1) mice
Conditions: endpoint: mean survival time, higher = longer survival
Method in brief: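 Vehicle-treated tumor-bearing mice served as controls (C) for compound-treated mice (T). Reported figure is T divided by C.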

[1] = dose: 100.0 mg/kg/injection, schedule: Q01DX001 (ip), vehicle: saline with Tween-80
[2] = dose: 200.0 mg/kg/injection, schedule: Q01DX001 (ip), vehicle: saline with Tween-80
[3] = dose: 400.0 mg/kg/injection, schedule: Q01DX001 (ip), vehicle: saline with Tween-80
[4] = dose: 200.0 mg/kg/injection, schedule: Q04DX003 (ip), vehicle: saline with Tween-80
[5] = dose: 400.0 mg/kg/injection, schedule: Q04DX003 (ip), vehicle: saline with Tween-80
[6] = dose: 400.0 mg/kg/injection, schedule: Q01DX001 (ip), vehicle: saline
[7] = dose: 100.0 mg/kg/injection, schedule: Q04DX003 (ip), vehicle: saline with Tween-80
[8] = dose: 100.0 mg/kg/injection, schedule: Q01DX009 (ip), vehicle: saline with Tween-80
[9] = dose: 200.0 mg/kg/injection, schedule: Q01DX009 (ip), vehicle: saline with Tween-80
[10] = dose: 400.0 mg/kg/injection, schedule: Q01DX009 (ip), vehicle: saline with Tween-80
[11] = dose: 100.0 mg/kg/injection, schedule: Q04DX002 (ip), vehicle: saline with Tween-80
[12] = dose: 200.0 mg/kg/injection, schedule: Q04DX002 (ip), vehicle: saline with Tween-80
[13] = dose: 400.0 mg/kg/injection, schedule: Q04DX002 (ip), vehicle: saline with Tween-80
[14] = dose: 25.0 mg/kg/injection, schedule: Q01DX009 (ip), vehicle: saline with Tween-80
[15] = dose: 50.0 mg/kg/injection, schedule: Q01DX009 (ip), vehicle: saline with Tween-80
[16] = dose: 12.5 mg/kg/injection, schedule: Q04DX003 (ip), vehicle: water
[17] = dose: 25.0 mg/kg/injection, schedule: Q04DX003 (ip), vehicle: water
[18] = dose: 50.0 mg/kg/injection, schedule: Q04DX003 (ip), vehicle: water
[19] = dose: 100.0 mg/kg/injection, schedule: Q04DX003 (ip), vehicle: water
[20] = dose: 200.0 mg/kg/injection, schedule: Q04DX003 (ip), vehicle: water

Measured: T/C

c1ccc(CNc2nnnc3ccccc23)cc1
inactive: [1] 100 % of control | [2] 88 % of control | [3] 94 % of control

O=C(N/N=C(/C(=N/NC(=O)c1ccccc1)c1ccccc1)c1ccccc1)c1ccccc1
inactive: [4] 91 % of control | [5] 87 % of control

O=C(O)O.[Co]
inactive: [6] 105 % of control

C1=CC2c3ccc4ccccc4c3C(c3ccccc3)C2C=C1 (stereo unspecified)
inactive: [7] 108 % of control | [4] 96 % of control | [5] 102 % of control

c1ccc2snnc2c1
inactive: dose: 100.0 mg/kg/injection, schedule: Q01DX001 (ip), vehicle: other 97 % of control | dose: 200.0 mg/kg/injection, schedule: Q01DX001 (ip), vehicle: other 103 % of control | dose: 400.0 mg/kg/injection, schedule: Q01DX001 (ip), vehicle: other 88 % of control

COc1ccc(N=C(c2ccccc2)c2ccccc2)cc1
inactive: [8] 95 % of control | dose: 100.0 mg/kg/injection, schedule: Q04DX003 (ip), vehicle: saline 89 % of control | [9] 97 % of control | dose: 200.0 mg/kg/injection, schedule: Q04DX003 (ip), vehicle: saline 101 % of control | [10] 91 % of control | dose: 400.0 mg/kg/injection, schedule: Q04DX003 (ip), vehicle: saline 101 % of control

COc1ccc(OC)c(NC(=S)NC(=O)c2cccc(Br)c2)c1
inactive: [1] 93 % of control | [8] 95 % of control and 96 % of control | [11] 94 % of control and 100 % of control | [7] 95 % of control | [2] 88 % of control | [9] 95 % of control and 100 % of control | [12] 94 % of control and 100 % of control | [4] 91 % of control | [3] 89 % of control | [10] 92 % of control and 100 % of control | [13] 89 % of control and 100 % of control | [5] 95 % of control

Clc1ccc(OCc2sc3ccc(Cl)cc3c2CN2CCCCC2)cc1
inactive: [14] 100 % of control | [15] 97 % of control | [8] 95 % of control

CCN1CC1 (tested in a mixture with another compound)
inactive: dose: 1.17 mg/kg/injection, schedule: Q01DX009 (ip), vehicle: Klucel (hydroxypropylcellulose) (HPC) 93 % of control | dose: 1.56 mg/kg/injection, schedule: Q04DX003 (ip), vehicle: other 92 % of control | dose: 2.34 mg/kg/injection, schedule: Q01DX009 (ip), vehicle: Klucel (hydroxypropylcellulose) (HPC) 102 % of control | dose: 3.12 mg/kg/injection, schedule: Q04DX003 (ip), vehicle: other 101 % of control | dose: 4.68 mg/kg/injection, schedule: Q01DX009 (ip), vehicle: Klucel (hydroxypropylcellulose) (HPC) 86 % of control | dose: 6.25 mg/kg/injection, schedule: Q04DX003 (ip), vehicle: other 91 % of control | dose: 9.37 mg/kg/injection, schedule: Q04DX003 (ip), vehicle: Klucel (hydroxypropylcellulose) (HPC) 96 % of control and 98 % of control | dose: 14.2 mg/kg/injection, schedule: Q04DX003 (ip), vehicle: Klucel (hydroxypropylcellulose) (HPC) 86 % of control and 94 % of control | dose: 21.3 mg/kg/injection, schedule: Q04DX003 (ip), vehicle: Klucel (hydroxypropylcellulose) (HPC) 103 % of control

O=[N+]([O-])c1cc(Cl)cc2c1-c1ccc(Cl)cc1C2Br (stereo unspecified)
inactive: dose: 50.0 mg/kg/injection, schedule: Q01DX001 (ip), vehicle: carboxymethylcellulose (CMC) 104 % of control | dose: 100.0 mg/kg/injection, schedule: Q01DX001 (ip), vehicle: carboxymethylcellulose (CMC) 98 % of control | dose: 200.0 mg/kg/injection, schedule: Q01DX001 (ip), vehicle: carboxymethylcellulose (CMC) 104 % of control | dose: 400.0 mg/kg/injection, schedule: Q01DX001 (ip), vehicle: carboxymethylcellulose (CMC) 104 % of control

CCC[CH2][Sn]1([CH2]CCC)[O]C2C(CO)OC(n3cnc4c(N)ncnc43)C2[O]1 (stereo unspecified)
inactive: dose: 0.2 mg/kg/injection, schedule: Q01DX005 (ip), vehicle: other 107 % of control | dose: 0.39 mg/kg/injection, schedule: Q01DX005 (ip), vehicle: other 104 % of control | dose: 0.78 mg/kg/injection, schedule: Q01DX005 (ip), vehicle: other 104 % of control | dose: 1.56 mg/kg/injection, schedule: Q01DX005 (ip), vehicle: other 102 % of control and 107 % of control | dose: 3.13 mg/kg/injection, schedule: Q01DX005 (ip), vehicle: other 103 % of control and 110 % of control

O=C(CO)C(OC1OC(CO)C(O)C(O)C1O)C(O)C(O)CO (stereo unspecified)
inactive: dose: 100.0 mg/kg/injection, schedule: Q01DX001 (ip), vehicle: saline 103 % of control | dose: 200.0 mg/kg/injection, schedule: Q01DX001 (ip), vehicle: saline 97 % of control | [6] 100 % of control

Cc1ccc(C(C)(c2ccccc2)C(C)(CC=O)CC(=O)O)cc1 (stereo unspecified)
inactive: [8] 95 % of control | [9] 94 % of control | [10] 97 % of control

O=C(O)C(=O)O.[Ru].c1cnc2c(c1)ccc1cccnc12.c1cnc2c(c1)ccc1cccnc12
inactive: dose: 3.13 mg/kg/injection, schedule: Q04DX003 (ip), vehicle: water 95 % of control | dose: 6.25 mg/kg/injection, schedule: Q04DX003 (ip), vehicle: water 96 % of control | [16] 93 % of control | [17] 93 % of control | [18] 95 % of control | [19] 91 % of control | [20] 90 % of control

Cc1ccc(S(=O)(=O)CN2CCC(=O)c3ccccc32)cc1
inactive: dose: 75.0 mg/kg/injection, schedule: Q04DX003 (ip), vehicle: saline 95 % of control | dose: 150.0 mg/kg/injection, schedule: Q04DX003 (ip), vehicle: saline 91 % of control | dose: 300.0 mg/kg/injection, schedule: Q04DX003 (ip), vehicle: saline 97 % of control

COc1ccc2c(O)c(C)c(=O)n(C)c2c1
inactive: [11] 96 % of control | [12] 96 % of control | [13] 93 % of control

CN(C)c1ccc2nc(CC(O)(C(F)(F)F)C(F)(F)F)ccc2c1
inactive: [14] 95 % of control | [15] 95 % of control | [8] 93 % of control | [7] 89 % of control

CC(C)(O)c1cc(Cl)c(C#N)c(Cl)c1
inactive: dose: 37.5 mg/kg/injection, schedule: Q04DX002 (ip), vehicle: saline with Tween-80 109 % of control | dose: 75.0 mg/kg/injection, schedule: Q04DX002 (ip), vehicle: saline with Tween-80 102 % of control | dose: 150.0 mg/kg/injection, schedule: Q04DX002 (ip), vehicle: saline with Tween-80 102 % of control | dose: 300.0 mg/kg/injection, schedule: Q04DX002 (ip), vehicle: saline with Tween-80 93 % of control

[Cl][Pt][Cl].[NH-]CC[NH-].[NH-]CC[NH-]
inactive: [16] 92 % of control and 100 % of control and 95 % of control | [17] 88 % of control and 89 % of control and 100 % of control | [18] 95 % of control and 97 % of control | [19] 90 % of control and 91 % of control and 95 % of control | [20] 95 % of control and 93 % of control

CC(Cc1ccccc1)NC=O (stereo unspecified)
inactive: [15] 97 % of control | [8] 97 % of control

CN1CCCN(C)C1c1cc(Br)ccc1O
inactive: dose: 6.25 mg/kg/injection, schedule: Q01DX009 (ip), vehicle: saline sonified 100 % of control | dose: 12.5 mg/kg/injection, schedule: Q01DX009 (ip), vehicle: saline sonified 104 % of control | dose: 25.0 mg/kg/injection, schedule: Q01DX009 (ip), vehicle: saline sonified 94 % of control | [7] 101 % of control | [4] 95 % of control | [5] 95 % of control

CCCCCCCCCCCCCCCCCC[N+]1(C)CCSCC1
inactive: dose: 12.5 mg/kg/injection, schedule: Q01DX001 (ip), vehicle: saline with Tween-80 95 % of control | dose: 25.0 mg/kg/injection, schedule: Q01DX001 (ip), vehicle: saline with Tween-80 103 % of control | dose: 50.0 mg/kg/injection, schedule: Q01DX001 (ip), vehicle: saline with Tween-80 104 % of control | [1] 91 % of control and 101 % of control | [2] 101 % of control and 110 % of control

Reference: PubChem BioAssay AID256 (DTP/NCI, 2004)
